Measured values as given in patent US10266526B2, “Substituted 1,2,3-triazoles as SMYD inhibitors for treating cancer” (EPIZYME, INC., priority 2014, dated 2019).
Structures can show the parent of a compound that is named as a salt.

Columns and labels:
SMYD3 [1] = molecular target: T1, SMYD3 (Homo sapiens (Human), UniProt Q9H7B4); experiment: SMYD3 biochemical assay (SMYD3 enzyme assay on MEKK2 protein substrate, 3H-SAM scintillation proximity assay); conditions: read-out: SMYD3 Biochem IC50
Summary of the method: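 Native full-length human SMYD3, expressed in E. coli, was preincubated with compound for 30 min at room temperature in 25 mM Tris-Cl pH 8.0, 1 mM TCEP, 0.005% BSG and 0.005% Tween 20. ³H-SAM plus GST-MEKK2 then started the reaction. It was stopped with unlabeled SAM (100 uM final), and methylated MEKK2 was read by SPA.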

SMYD3 [2] = molecular target: T1, SMYD3; experiment: SMYD3 cell assay (Trimethyl-MEKK2 In-Cell Western in 293T/17 cells transfected with MEKK2-flag and SMYD3); type: cell-based
Summary of the method: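 Methanol-fixed cells stained in-cell Western for trimethyl-MEKK2 and anti-flag. Ratio-based % inhibition against DMSO and background controls; IC50 by non-linear regression, triplicate wells.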

[3] = Table 3A, average of n = 1 to n = 50
[4] = Table 3A, average of n = 1 to n = 50, read-out: SMYD3 cell IC50

T1 sequence (Q9H7B4 whole entry): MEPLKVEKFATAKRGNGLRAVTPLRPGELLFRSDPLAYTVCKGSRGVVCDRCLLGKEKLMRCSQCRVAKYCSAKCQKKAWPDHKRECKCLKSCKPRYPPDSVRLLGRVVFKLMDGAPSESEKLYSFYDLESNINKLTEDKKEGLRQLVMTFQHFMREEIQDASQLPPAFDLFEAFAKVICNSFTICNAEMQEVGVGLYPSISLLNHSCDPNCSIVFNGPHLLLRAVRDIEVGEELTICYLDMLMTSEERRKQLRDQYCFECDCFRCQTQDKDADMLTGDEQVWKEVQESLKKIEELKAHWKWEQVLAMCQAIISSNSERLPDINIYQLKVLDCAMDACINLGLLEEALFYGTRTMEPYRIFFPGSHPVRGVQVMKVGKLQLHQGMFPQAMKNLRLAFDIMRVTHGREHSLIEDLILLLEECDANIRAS

SMILES | IC50 (SMYD3 [1]; [3]) | IC50 (SMYD3 [2]; [4]) | IC50 (SMYD3 [2]) | IC50 (SMYD3 [1])
N[C@H]1CC[C@H](S(=O)(=O)N2[C@@H]3CC[C@H]2C[C@@H](NC(=O)c2ccc4c(c2)OC(F)(F)O4)C3)CC1 [compound 623, N-((1R,3R,5S)-8-(((1r,4R)-4-aminocyclohexyl)sulfonyl)-8-azabicyclo[3.2.1]octan-3-yl)-2,2-difluorobenzo[d][1,3]dioxole-5-carboxamide] | 0.136 µM | 0.896 µM |  | 
NCCCS(=O)(=O)N1CCC(NC(=O)c2ccc3c(c2)CC(=O)N3)CC1 [compound 624, N-(1-((3-aminopropyl)sulfonyl)piperidin-4-yl)-2-oxoindoline-5-carboxamide] | 0.159 µM | ≥ 10 µM |  | 
NC1CCN(S(=O)(=O)N2[C@@H]3CC[C@H]2C[C@@H](NC(=O)c2ccc4c(c2)OC(F)(F)O4)C3)CC1 [compound 626, N-((1R,3r,5S)-8-((4-aminopiperidin-1-yl)sulfonyl)-8-azabicyclo[3.2.1]octan-3-yl)-2,2-difluorobenzo[d][1,3]dioxole-5-carboxamide] | 0.222 µM | 2.97 µM |  | 
CNC1CCN(S(=O)(=O)N2[C@@H]3CC[C@H]2C[C@@H](NC(=O)c2ccc4c(c2)CC(=O)N4)C3)CC1 [compound 589, N-((1R,3r,5S)-8-((4-(methylamino)piperidin-1-yl)sulfonyl)-8-azabicyclo[3.2.1]octan-3-yl)-2-oxoindoline-5-carboxamide] | 0.00213 µM | 0.987 µM |  | 
C[C@H]1C[C@@H](NC(=O)c2nnc(C3CC3)s2)CCN1S(=O)(=O)N1CCC(N)CC1 [compound 607, N-((2S,4S)-1-((4-aminopiperidin-1-yl)sulfonyl)-2-methylpiperidin-4-yl)-5-cyclopropyl-1,3,4-thiadiazole-2-carboxamide] | 0.0181 µM | 0.205 µM |  | 
O=C1Cc2cc(C(=O)N[C@H]3C[C@H]4CC[C@@H](C3)N4S(=O)(=O)N3CCC(NCc4ccccc4)CC3)ccc2N1 [Cpd. No. 587, N-[(1R,3r,5S)-8-[4-(benzylamino)piperidine-1-sulfonyl]-8-azabicyclo[3.2.1]octan-3-yl]-2-oxo-2,3-dihydro-1H-indole-5-carboxamide] | 0.00198 µM | 0.071 µM |  | 
NC1CCN(S(=O)(=O)N2[C@@H]3CC[C@H]2C[C@@H](NC(=O)c2ccc4c(c2)NC(=O)CO4)C3)CC1 [compound 609, N-((1R,3r,5S)-8-(4-aminopiperidin-1-ylsulfonyl)-8-aza-bicyclo[3.2.1]octan-3-yl)-3-oxo-3,4-dihydro-2H-benzo[b][1,4]oxazine-6-carboxamide Hydrochloride] | 0.0237 µM | 3.7 µM |  | 
CN1CCC(CS(=O)(=O)N2[C@@H]3CC[C@H]2C[C@@H](NC(=O)c2ccc4c(c2)OC(F)(F)O4)C3)CC1 [compound 630, 2,2-difluoro-N-((1R,3r,5S)-8-(((1-methylpiperidin-4-yl)methyl)sulfonyl)-8-azabicyclo[3.2.1]octan-3-yl)benzo[d][1,3]dioxole-5-carboxamide] | 0.361 µM | 6.55 µM |  | 
O=C(N[C@H]1C[C@H]2CC[C@@H](C1)N2S(=O)(=O)CC1CCNCC1)c1ccc2[nH]c(=O)oc2c1 [Cpd. No. 601, 2-oxo-N-((1R,3r,5SR)-8-(piperidin-4-ylmethylsulfonyl)-8-aza-bicyclo[3.2.1]octan-3-yl)-2,3-dihydrobenzo[d]oxazole-6-carboxamide Hydrochloride] | 0.00521 µM | 4.54 µM |  | 
NC1CCN(S(=O)(=O)N2[C@@H]3CC[C@H]2C[C@@H](NC(=O)c2ccc4c(c2)OCC(=O)N4)C3)CC1 [compound 636, N-((1R,3r,5S)-8-((4-aminopiperidin-1-yl)sulfonyl)-8-azabicyclo[3.2.1]octan-3-yl)-3-oxo-3,4-dihydro-2H-benzo[b][1,4]oxazine-7-carboxamide] | 0.819 µM |  | ≥ 10 µM | 
NC1CCN(S(=O)(=O)N2[C@@H]3CC[C@H]2C[C@@H](NC(=O)c2cnn(C4CC4)c2)C3)CC1 [compound 637, N-((1R,3r,5S)-8-((4-aminopiperidin-1-yl)sulfonyl)-8-azabicyclo[3.2.1]octan-3-yl)-1-cyclopropyl-1H-pyrazole-4-carboxamide] | 0.839 µM | ≥ 10 µM |  | 
CCc1cc(C(=O)N[C@@H]2CCN(S(=O)(=O)N3CCC(N)CC3)[C@@H](C)C2)ns1 [compound 629, N-((2S,4R)-1-(4-aminopiperidin-1-ylsulfonyl)-2-methylpiperidin-4-yl)-5-ethyl-1,2-thiazole-3-carboxamide] | 0.326 µM | 2.08 µM |  | 
CN1C(=O)Cc2cc(C(=O)N[C@H]3C[C@H]4CC[C@@H](C3)N4S(=O)(=O)CC3CCNCC3)c(Cl)cc21 [compound 617, 6-chloro-1-methyl-2-oxo-N-((1R,3r,5S)-8-((piperidin-4-ylmethyl)sulfonyl)-8-azabicyclo[3.2.1]octan-3-yl)indoline-5-carboxamide] | 0.0523 µM | 2.96 µM |  | 
NC1CCN(S(=O)(=O)N2[C@@H]3CC[C@H]2C[C@@H](NC(=O)c2cc4c(cc2Cl)NC(=O)C4)C3)CC1 [compound 579, N-((1R,3r,5S)-8-((4-aminopiperidin-1-yl)sulfonyl)-8-azabicyclo[3.2.1]octan-3-yl)-6-chloro-2-oxoindoline-5-carboxamide] | 0.00081 µM | 1.13 µM |  | 
C[C@H]1Oc2ccc(C(=O)N[C@H]3C[C@H]4CC[C@@H](C3)N4S(=O)(=O)CC3CCNCC3)cc2NC1=O [Cpd. No. 625, (2R)-2-methyl-3-oxo-N-[(1R,3r,5S)-8-[(piperidin-4-ylmethane)sulfonyl]-8-azabicyclo[3.2.1]octan-3-yl]-3,4-dihydro-2H-1,4-benzoxazine-6-carboxamide Hydrochloride] | 0.185 µM | ≥ 10 µM |  | 
Cc1cc2c(cc1C(=O)N[C@H]1C[C@H]3CC[C@@H](C1)N3S(=O)(=O)N1CCC(N)CC1)CC(=O)N2 [compound 606, N-((1R,3r,5S)-8-((4-aminopiperidin-1-yl)sulfonyl)-8-azabicyclo[3.2.1]octan-3-yl)-6-methyl-2-oxoindoline-5-carboxamide] | 0.0156 µM | 1.79 µM |  | 
CCc1cc(C(=O)N[C@H]2CCN(S(=O)(=O)N3CCC(N)CC3)[C@@H](C)C2)ns1 [compound 605, N-((2S,4S)-1-(4-aminopiperidin-1-ylsulfonyl)-2-methylpiperidin-4-yl)-5-ethyl-1,2-thiazole-3-carboxamide Hydrochloride] |  | 0.201 µM |  | 0.0154 µM
C[C@H]1CN(S(=O)(=O)N2CCC(N)CC2)CCC1NC(=O)c1cc2c(cc1Cl)NC(=O)C2 (stereo partly drawn) [compound 603, N-((3S)-1-((4-aminopiperidin-1-yl)sulfonyl)-3-methylpiperidin-4-yl)-6-chloro-2-oxoindoline-5-carboxamide] | 0.00853 µM | 2.68 µM |  | 
NC1CCN(S(=O)(=O)N2[C@@H]3CC[C@H]2C[C@@H](NC(=O)c2nnc(C4CC4)s2)C3)CC1 [compound 618, N-((1R,3r,5S)-8-((4-aminopiperidin-1-yl)sulfonyl)-8-azabicyclo[3.2.1]octan-3-yl)-5-cyclopropyl-1,3,4-thiadiazole-2-carboxamide] | 0.0558 µM | 0.348 µM |  | 
CCc1cnnc(C(=O)N[C@H]2C[C@H]3CC[C@@H](C2)N3S(=O)(=O)N2CCC(N)CC2)c1 [compound 616, N-[(1R,3r,5S)-8-(4-aminopiperidine-1-sulfonyl)-8-azabicyclo[3.2.1]octan-3-yl]-5-ethylpyridazine-3-carboxamide Trifluoroacetate] |  | 0.54 µM |  | 0.0499 µM
